Results from US20250326743A1, “CRYSTAL FORMS OF TRIAZINE DIONE DERIVATIVE AND PREPARATION METHOD THEREFOR” (Jiangsu Hengrui Pharmaceuticals Co., Ltd., priority 2022, published 2025).

Assays:
[1] = molecular target: T1, myosin ATPase (Bos taurus, UniProt Q9BE39); conditions: biological evaluation in Application No. WO2022105852; cited from earlier work
T1 construct: 0.07 μM myosin motor protein SI fragment; purchased Cytoskeleton CS-MYS03 (myosin S1); AD99 (actin)

[2] = Toxicokinetic evaluation of 14 days of repeated intragastric administration to SD rats; type: in vivo
Description: SD rats were used as the test animals. After intragastric administration of the test compounds to the SD rats, the concentrations of the original forms of the compounds in the plasma and the administration solutions were measured by the LC/MS/MS method at different time points.
Twenty-four SD rats, with an equal number of males and females, were evenly divided into 6 groups, each consisting of 4 rats with an equal number of males and females. The rats were provided by Vital River Laboratory Animal Technology Co., Ltd.
A certain amount of compound MYK-461 was weighed out, and 0.5% MC was added to prepare a colorless clear solution.
Compound MYK-461 was administered at doses of 0.5 mg/kg, 1.5 mg/kg, and 3 mg/kg, each with a volume of 10 mL/kg.
0.2-mL blood samples were collected from the orbit at 0.5 h, 1.0 h, 2.0 h, 4.0 h, 8.0 h, and 24.0 h after administration on day 1, and 0.2-mL blood samples were collected from the orbit before administration and at 0.5 h, 1.0 h, 2.0 h, 4.0 h, 8.0 h, and 24.0 h after administration on day 7 and day 14. The blood samples were placed into EDTA-K2 anticoagulation tubes and centrifuged at 10,000 rpm for 1 min (4° C.), and the plasma was isolated within 1 h and stored at −20° C. before analysis. The procedure starting from the blood collection to the centrifugation was performed under ice-bath conditions. Two hours after administration, food was provided. […]

T1 sequence (Q9BE39 85-778 limits assumed): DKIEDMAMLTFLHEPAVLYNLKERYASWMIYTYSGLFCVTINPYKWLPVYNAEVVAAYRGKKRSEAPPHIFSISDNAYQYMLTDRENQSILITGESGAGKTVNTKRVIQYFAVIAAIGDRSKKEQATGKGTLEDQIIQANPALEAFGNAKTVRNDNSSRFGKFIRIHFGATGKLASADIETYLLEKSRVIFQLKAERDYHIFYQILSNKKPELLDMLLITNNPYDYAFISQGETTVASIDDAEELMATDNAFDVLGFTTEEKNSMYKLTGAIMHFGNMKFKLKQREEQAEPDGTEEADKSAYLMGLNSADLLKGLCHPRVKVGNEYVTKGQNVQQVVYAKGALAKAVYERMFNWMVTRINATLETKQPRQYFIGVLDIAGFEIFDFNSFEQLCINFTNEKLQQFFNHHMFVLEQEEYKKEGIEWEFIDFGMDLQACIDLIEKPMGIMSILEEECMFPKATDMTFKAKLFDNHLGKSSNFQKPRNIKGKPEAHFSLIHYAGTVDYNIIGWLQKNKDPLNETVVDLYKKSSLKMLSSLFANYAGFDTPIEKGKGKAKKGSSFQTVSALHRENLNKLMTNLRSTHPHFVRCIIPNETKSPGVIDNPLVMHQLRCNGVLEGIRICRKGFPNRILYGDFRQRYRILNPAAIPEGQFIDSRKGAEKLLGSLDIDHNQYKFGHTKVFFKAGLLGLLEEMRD
T1 sequence (P85100 whole entry partner, the tested form may be a part): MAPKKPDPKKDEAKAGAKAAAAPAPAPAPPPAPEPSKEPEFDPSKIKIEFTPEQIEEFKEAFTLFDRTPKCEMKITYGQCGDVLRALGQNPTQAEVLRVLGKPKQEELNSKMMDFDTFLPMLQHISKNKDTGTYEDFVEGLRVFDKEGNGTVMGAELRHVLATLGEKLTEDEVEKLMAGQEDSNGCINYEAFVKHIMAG

| Compound | inhibitory effect on myosin ATPase [1] | accumulation in the SD rats [2] |
| --- | --- | --- |
| Cc1ccc(F)c([C@H](C)Nc2nc(=O)n(C3CCOCC3)c(=O)[nH]2)c1 [(S)-6-((1-(2-Fluoro-5-methylphenyl)ethyl)amino)-3-(tetrahydro-2H-pyran-4-yl)-1,3,5-triazine-2,4(1H,3H)-dione] | very good inhibitory effect | did not cause significant accumulation |
| CC(C)n1c(=O)cc(N[C@@H](C)c2ccccc2)[nH]c1=O [MYK-461, reference compound] |  | caused significant accumulation |
